Data: patent publication US20260217837A1, “FGFR3 BINDING MOLECULES AND METHODS OF USE THEREOF” (Regeneron Pharmaceuticals, Inc., priority 2023, published 2026)

What was measured:
[1] = tested on: locally advanced or metastatic bladder cancer; details: patients who receive cisplatin; Wong & Rosenberg, 2021; cited from earlier work
[2] = tested on: BaF3 cells expressing the double mutant FGFR3 S249C+V557L; assay: BaF3 cell viability, FGFR3 S249C+V557L; type: cell-based; details: 72 hours, FGF1/heparin
Source text: (§1) cDNA expressing FGFR3 mutants (S249C, S248C, Y375C, V555M, V555L, S249C+V555M, or S249C+V555L) were synthesized and cloned into pLVX Lenti-viral vector (Thermo Fisher). Viral particles were generated by lipofectamine transfection of LentiX 293T cells using Lenti-X packaging single shots following manufacturer's protocol (Clontech/Takara) and concentrated using Lenti-X concentrator and titer determined using Lenti-X p24 rapid titer kit (Clontech/Takara). BaF3 cells were transduced with virus at ~0.3 MOI.
(§2) For cell proliferation assays, engineered BaF3/hFGFR3 cells grown in complete medium were washed and plated in IL-3-free culture media±5 μg/ml heparin and 1 nM human FGF1. Cells were plated out at 1×10^5 cells/well into 96-well plates, followed by the addition of 1:3 serially diluted antibodies as indicated in figures. After addition of antibodies, cells were incubated at 37° C. for 72 h followed by the addition of CellTiter-Glo™ (Promega) reagent. The luminescent signal was detected by Envision plate reader (PerkinElmer). Data was analyzed using Prism software (GraphPad). […]

[3] = tested on: BaF3 cells expressing the double mutant FGFR3 S249C+V557M; assay: BaF3 cell viability, FGFR3 S249C+V557M; type: cell-based; details: 72 hours, FGF1/heparin
Source text: as §1, §2

[4] = tested on: BaF3 cells expressing FGFR3 V557L; assay: BaF3 cell viability, FGFR3 V557L; type: cell-based; details: 72 hours, FGF1/heparin
Source text: as §1, §2

[5] = tested on: BaF3 cells expressing FGFR3 V557M; assay: BaF3 cell viability, FGFR3 V557M; type: cell-based; details: 72 hours, FGF1/heparin
Source text: as §1, §2

Compound | median overall survival [1] | growth of BaF3 cells expressing FGFR3 S249C+V557L [2] | growth of BaF3 cells expressing FGFR3 S249C+V557M [3] | growth of BaF3 cells expressing FGFR3 V557L [4] | growth of BaF3 cells expressing FGFR3 V557M [5]
N.N.[Cl][Pt][Cl] [cisplatin] | approximately 14 months | – | – | – | –
AZD4547 [reference compound] | – | ineffective | ineffective | ineffective | ineffective
